Measurements from US10570164B2, “Steviol glycosides, their compositions and their purification” (The Coca-Cola Company, priority 2013, dated 2020).

Tests used:
panelists [1] = assay: Taste evaluation: overall sweetness of 30 ppm solutions against sucrose controls (sweetness recognition threshold); format: in vivo, human; settings: for sweetness recognition threshold: lowest concentration perceivable by the human sense of taste; for sucrose equivalence / isosweetness of a solution of the compound alone: solution containing 30 ppm compound, no additional sweetener, isosweet sucrose solution
Procedure: (§1) Solutions were made by dissolving all ingredients in treated water. For citric acid buffer, citric acid and potassium citrate were added in a sufficient amount to bring the pH to 3.2. Finished products were filled in 300 ml glass bottles and stored in the refrigerator and tasted the following day.
(§2) Beverages in citric acid/sodium citrate buffer were kept at 4° C. in the refrigerator and tasted the following day. Four panelists evaluated the beverages. Bottles were removed from the refrigerator and about 20 ml of beverage poured in 2 oz. plastic cups. Panelists were instructed not to swallow the samples and additional cups were provided to spit the sample in. Mineral water was given for palate rinsing before tasting and between tasting different samples.
To evaluate 30 ppm of rebaudioside N and rebaudioside O for overall sweetness, panelists were provided solutions of 1%, 1.5%, and 2% sucrose in citric acid/sodium citrate buffer as controls. All panelists determined the overall sweetness of 30 ppm of rebaudioside N and rebaudioside O solutions in citric acid/sodium citrate buffer to fall between 1% and 1.5% sucrose controls. Accordingly, 30 ppm was determined to be the sweetness recognition threshold concentration for both compounds.

panelists [2] = assay: Taste evaluation: sweetness enhancement of 30 ppm added to 8% sucrose beverage against sucrose controls; format: in vivo, human; settings: for sweetness enhancement: 30 ppm compound added to beverage containing 8% sucrose, citric acid/sodium citrate buffer; for increase in isosweetness provided by the compound: 30 ppm compound in beverage with 8% (w/v) sucrose; for isosweetness of beverage containing sucrose and compound: beverage with 8% (w/v) sucrose and 30 ppm compound, isosweet sucrose solution
Procedure: as §1, §2
Sweetness enhancement of rebaudioside N and rebaudioside O was evaluated by adding 30 ppm to a solution of 8% sucrose in citric acid/sodium citrate buffer (pH 3.2). The new solutions were then evaluated for their overall sweetness against three controls of 8%, 9%, and 10% sucrose in citric acid/sodium citrate buffer solutions (pH 3.2).

| SMILES | sweetness recognition threshold (panelists [1]) | sucrose equivalence / isosweetness of a solution of the compound alone (panelists [1]) | sweetness enhancement (panelists [2]) | increase in isosweetness provided by the compound (panelists [2]) | isosweetness of beverage containing sucrose and compound (panelists [2]) | overall sweetness of beverage against sucrose controls (panelists [2]; 30 ppm compound and 8% sucrose in citric acid/sodium citrate buffer (pH 3.2), 8%, 9%, 10% sucrose controls) [%] |
| --- | --- | --- | --- | --- | --- | --- |
| C=C1C[C@@]23CCC4[C@](C)(C(=O)OC5OC(CO)C(O)C(OC6OC(CO)C(O)C(O)C6O)C5OC5OC(C)C(O)C(O)C5O)CCC[C@@]4(C)[C@@H]2CC[C@]1(OC1OC(CO)C(O)C(OC2OC(CO)C(O)C(O)C2O)C1OC1OC(CO)C(O)C(O)C1O)C3 (stereo partly drawn) [Compound (2f), 13-[(2-O-β-D-glucopyranosyl-3-O-β-D-glucopyranosyl-β-D-glucopyranosyl)oxy]ent-kaur-16-en-19-oic acid-[(2-O-α-D-rhamnopyranosyl-3-O-β-D-glucopyranosyl-β-D-glucopyranosyl)ester]] | about 30 ppm | 1.0-1.5 % (w/v) | 2.5-3.0% | 2.5-3.0 % (w/v) | 10.5-11.0 % (w/v) |  |
| C=C1C[C@@]23CCC4[C@](C)(C(=O)OC5OC(CO)C(O)C(OC6OC(CO)C(O)C(O)C6O)C5OC5OC(C)C(O)C(OC6OC(CO)C(O)C(O)C6O)C5O)CCC[C@@]4(C)[C@@H]2CC[C@]1(OC1OC(CO)C(O)C(OC2OC(CO)C(O)C(O)C2O)C1OC1OC(CO)C(O)C(O)C1O)C3 (stereo partly drawn) [Compound (2g), 13-[(2-O-β-D-glucopyranosyl-3-O-β-D-glucopyranosyl-β-D-glucopyranosyl)oxy]ent-kaur-16-en-19-oic acid-[(2-O-(3-O-β-D-glucopyranosyl-α-D-rhamnopyranosyl)-3-O-β-D-glucopyranosyl-β-D-glucopyranosyl)ester]] | about 30 ppm | 1.0-1.5 % (w/v) | about 2.0% | 2.0 % (w/v) | 10.0 % (w/v) | ~10 |
